The subject of data set [1] is human embryonic kidney cells (HEK293). In words: MTT cytotoxicity assay in non-malignant HEK293 cells. The data set is classed as cell-based. The following applies: 72 h. The method, then: (§1) The cells were seeded at 3500–6000 cells/well in 96-well plates depending on the proliferation rate of the respective cell line and allowed to recover for 24 h. Subsequently, the cells were treated at indicated concentrations for 48 or 72 h. Cells were additionally incubated with 5-fold equimolar concentrations of ascorbic acid to increase the reduction rate of the compounds. Cell viability was measured by the MTT-based vitality assay (EZ4U; Biomedica, Vienna, Austria), following the manufacturer’s recommendations.
In general terms: Formazan colour is commonly taken as a measure of viable cells.

A short description of data set [2]: log D7.4 determination by shake flask method and ICP-MS. It is filed as physicochemical. As to conditions: n-octanol/phosphate buffer pH 7.4, Pt by ICP-MS. The method, then: 50 mM stock solutions of the succinimide complexes in DMF were diluted in phosphate buffer (20 mM, pH 7.4, pre-saturated with n-octanol) to a final concentration of 50 μM drug and 0.1% DMF. The platinum content of these aqueous solutions was measured by ICP–MS (see above). The solutions were mixed 1:1 with n-octanol and shaken on a 360° rotatable rack for 3 h. The solutions were centrifuged for 5 min (860g, RT), the aqueous layers were carefully removed, and their Pt content was measured by ICP–MS. Experiments were performed and measured in duplicates, and averages were used for further calculations. log D7.4 values were calculated by the following equation [drawing 1]

In data set [3] the test system is human hepatic cell line (WRL68). In words: MTT cytotoxicity assay in non-malignant WRL68 cells. It is filed as cell-based. As to conditions: 72 h. Here is the method:
as §1

Data set [4] has as its system human HCT116 colon cancer cells. The data set is described as follows: MTT cytotoxicity assay in HCT116 cells. The data set is classed as cell-based. The method, then: (§2) Cells were additionally incubated with 5-fold equimolar concentrations of ascorbic acid to increase the reduction rate of the compounds. Cell viability was measured by the MTT-based vitality assay (EZ4U; Biomedica, Vienna, Austria), following the manufacturer’s recommendations.

The subject of data set [5] is VM7 melanoma cancer cells. The data set is described as follows: MTT cytotoxicity assay in VM7 cells. The data set is classed as cell-based, human. The following applies: 72 h. Here is the method: as §1
Data set [6] in a line: UHPLC reduction experiments with L-ascorbic acid. It is filed as physicochemical. The following applies: 1 mM complex, 10-fold excess AA, phosphate buffer pH 7.4, 1% DMF, 20 °C. Here is the method: The platinum(IV)–succinimide complexes were dissolved in 2% DMF in phosphate buffer (500 mM, pH 7.4) to a final concentration of 2 mM. The solutions were then mixed 1:1 with a 20 mM stock of L-ascorbic acid in phosphate buffer (500 mM, pH 7.4) to obtain final concentrations of 1 mM complex, 10 mM L-ascorbic acid, and 1% DMF. The samples were incubated at 20 °C and measured on a Dionex UltiMate 3000 RS UPLC system with a Waters Acquity UPLC BEH C18 column (3 × 50 mm, pore size 1.7 μm) and absorption detection at 220 nm. Data points were taken at t = 0 and every 30 min for 6 h.

The next data set addresses T1, albumin (Bos taurus, UniProt P02769).
T1 construct: FCS was purchased from Sigma-Aldrich and buffered with 150 mM phosphate buffer (pH 7.4); tissue Sigma-Aldrich; host or cells: fetal calf serum
The data set is described as follows: SEC-ICP-MS albumin binding and serum stability in fetal calf serum. It is filed as in vitro ADME. The following applies: FCS + 150 mM phosphate buffer pH 7.4, 37 °C. Here is the method:
FCS was purchased from Sigma-Aldrich and buffered with 150 mM phosphate buffer (pH 7.4) to guarantee a stable pH. The maleimide-bearing platinum(IV) complexes were dissolved in 10% DMF in 150 mM phosphate buffer (pH 7.4) to 1 mM and diluted 1:10 in serum to obtain a final concentration of 100 μM. The samples were then incubated in the autosampler at 37 °C for 24 h and analyzed every 1 h. Between each sample, a pure water blank was measured. For SEC–ICP–MS measurements, an Agilent 1260 Infinity system coupled to an Agilent 7800 ICP–MS equipped with a dynamic reaction cell was used. Oxygen (purity 5.5, Messer Austria GmbH, Gumpoldskirchen, Austria) was used as reaction gas.

Data set [7] deals with murine CT26 colon cancer cells. The data set is described as follows: MTT cytotoxicity assay in CT26 cells. It is filed as cell-based. The method, then: as §2
Another data set has as its system SKOV3 cell lysates. In words: Reduction and 1-MDT release in SKOV3 lysates. It is filed as in vitro ADME, human. The following applies: 100 μM, 37 °C. The method, then:
SKOV3 cells were grown in four T225 […] cell culture flasks to reach a high cell number. On the day of cell lysate isolation, cells were washed with PBS, scraped from the surface, and centrifuged. Each cell pellet was lysed in ∼160 μL lysis buffer (15 mM NaCl 0.5% Triton X, ultrapure) and incubated on ice for 1 h. The samples were then centrifuged for 15 min at 14,000 rpm (4 °C), and the cleared lysate was pooled and kept at −80 °C until analysis. Cell lysates were treated with 2 mM stock solutions of respective complexes in 4% DMF and phosphate buffer (100 mM, pH 7.4) to obtain a final compound concentration of 100 μM and incubated at 37 °C. After 0, 4, 24, and 72 h, three volume equivalents of cold MeOH were added to sample aliquots. Samples were stored at 4 °C for 10 min and centrifuged (15,080g, 4 °C, 10 min). LC–MS analysis of the supernatant was performed on an Agilent 1260 Infinity system using a Waters Atlantis T3 column (150 mm × 4.6 mm) and absorption detection at 230 nm, coupled to a Bruker amaZon SL ESI-IT mass spectrometer. Milli-Q water, containing 0.1% formic acid, and acetonitrile, containing 0.1% formic acid, were used as eluents. A gradient of 1–99% acetonitrile in 20 min was used.

In the next data set the test system is SKOV3 cancer cells. The data set is described as follows: Long-term cytotoxicity assay (crystal violet) in SKOV3 cells. It is filed as cell-based, human. The following applies: 168 h, crystal violet stain, mean ± SD. Here is the method: SKOV3 cells were seeded in duplicates at 5000 cells/well in 24-well plates and allowed to recover for 24 h. Subsequently, the cells were treated at the indicated concentrations for 168 h. Cells were fixed with ice-cold methanol (20 min at 4 °C), washed with PBS, and stained with crystal violet. Subsequently, colony formation was inspected, and the fluorescence signal was detected using Typhoon Trio imager (GE Healthcare, Little Chalfont, UK) at 610/30 nm BP and analyzed by ImageJ software.

The next data set relates to human SKOV3 cancer cells. The data set is described as follows: MTT cytotoxicity assay in SKOV3 cells. It is filed as cell-based. The following applies: 72 h incubation. Here is the method:
as §1

Setting [8] is: 48 h incubation, with 5 equiv AA, read-out: HCT116 IC50 values +AA, mean ± SD.
[9] abbreviates: 48 h incubation, without AA, read-out: HCT116 IC50 values, mean ± SD.
[10] abbreviates: 72 h incubation, with 5 eq. AA, read-out: HCT116 IC50 values + 5 eq. AA, mean.
The mark [11] stands for this setting: 72 h incubation, without AA, read-out: HCT116 IC50 values, mean.
Where [12] appears, read: 48 h incubation, with 5 equiv AA, read-out: CT26 IC50 values +AA, mean ± SD.
Where [13] appears, read: 48 h incubation, without AA, read-out: CT26 IC50 values, mean ± SD.
Setting [14] is: 72 h incubation, with 5 eq. AA, read-out: CT26 IC50 values + 5 eq. AA, mean.
[15] abbreviates: 72 h incubation, without AA, read-out: CT26 IC50 values, mean.
The mark [16] stands for this setting: with 5 eq. AA, read-out: SKOV3 IC50 values + 5 eq. AA, mean.
The mark [17] stands for this setting: without AA, read-out: SKOV3 IC50 values, mean.

For orientation: IC50 means the point on the concentration scale where inhibition reaches its midpoint.

Structures are written as SMILES. Like-named read-outs stand apart in the source and are kept apart here.

T1 sequence (P02769 25-607): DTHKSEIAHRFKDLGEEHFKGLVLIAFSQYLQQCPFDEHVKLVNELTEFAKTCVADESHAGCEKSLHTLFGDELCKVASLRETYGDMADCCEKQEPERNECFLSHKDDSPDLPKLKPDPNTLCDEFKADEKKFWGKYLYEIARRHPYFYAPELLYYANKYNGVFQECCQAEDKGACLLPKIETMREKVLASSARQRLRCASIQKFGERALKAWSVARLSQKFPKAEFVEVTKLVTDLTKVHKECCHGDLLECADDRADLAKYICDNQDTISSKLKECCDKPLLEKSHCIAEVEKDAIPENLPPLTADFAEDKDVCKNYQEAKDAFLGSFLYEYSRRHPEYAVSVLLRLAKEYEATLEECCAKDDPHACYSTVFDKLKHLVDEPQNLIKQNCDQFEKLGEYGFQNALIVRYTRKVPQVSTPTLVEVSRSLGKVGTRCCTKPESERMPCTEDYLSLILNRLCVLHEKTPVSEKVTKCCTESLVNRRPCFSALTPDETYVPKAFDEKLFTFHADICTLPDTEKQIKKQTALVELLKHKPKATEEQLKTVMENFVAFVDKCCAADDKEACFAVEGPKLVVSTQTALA

For the compound `Cn1cc(CC([NH3+])C(=O)[O][Pt]23([O]C(=O)NCCCCCN4C(=O)CCC4=O)([NH]C4CCCCC4[NH]2)[O]C(=O)C(=O)[O]3)c2ccccc21.O=C([O-])C(F)(F)F` [SucCa/IdoEs, (OC-6-34)-[(R)-2-Ammonio-3-(1-methyl-1H-indol-3-yl)propanoato][(1R,2R)-1,2-cyclohexanediamino][5-(2,5-dioxo-2,5-dihydro-1H-pyrrolidin-1-yl)pentylcarbamato]oxalatoplatinum(IV) Trifluoroacetate], the half-inhibitory concentration (IC50) was 33.2 µM in [1]; 76.4 µM in [3]; 7.36 ± 1.14 µM in data set [4] (setting [8]); 26 ± 3.21 µM in data set [4] (setting [9]); 5.35 µM in data set [4] (setting [10]); 7.23 µM in [4] (setting [11]). Also, the IC50 was greater than 100 µM in data set [5]; 10.8 ± 1.04 µM in data set [7] (setting [12]); 60.1 ± 6.49 µM in [7] (setting [13]); 16.9 µM in data set [7] (setting [14]); 31.9 µM in [7] (setting [15]); 18.4 ± 3 µM with SKOV3 cancer cells. Besides, the IC50 in the data set on human SKOV3 cancer cells (setting [16]) and with human SKOV3 cancer cells (setting [17]) was greater than 100 µM in each case. Moreover, the “log D7.4” value in data set [2] is on record as “–0.16”. In [6], the “time until complex completely reduced” value is reported as no more than 2 h. Besides, the “albumin binding in serum (in words)” value on albumin is recorded as “significant binding to albumin (tR ~4 min) could be observed for any of the compounds”. Moreover, the “1-MDT release after 72 h” value with SKOV3 cell lysates was roughly 100%.
On to `Cn1cc(C[C@@H](NC(=O)[O][Pt]2([O]C(=O)CCCCCN3C(=O)CCC3=O)[O]C(=O)C(=O)[O]2)C(=O)O)c2ccccc21.N[C@@H]1CCCC[C@H]1N` [SucEs/IdoCa], for which the IC50 in data set [1] is 77.5 µM; in data set [3], greater than 100 µM; in [4] (setting [8]), 35.4 ± 6.54 µM; in data set [4] (setting [9]), greater than 100 µM; in data set [4] (setting [10]), 20.8 µM; in [4] (setting [11]), 82.1 µM. Further, the IC50 in [5] is greater than 100 µM; in data set [7] (setting [12]) it was 26.7 ± 0.75 µM; in data set [7] (setting [13]) it was greater than 100 µM; in data set [7] (setting [14]), 46 µM; in [7] (setting [15]) it was 90.5 µM; with SKOV3 cancer cells, 53.1 ± 4.5 µM. Moreover, the IC50 with human SKOV3 cancer cells (setting [16]) and in the data set on human SKOV3 cancer cells (setting [17]) was greater than 100 µM each time. Besides, the “log D7.4” value in [2] is given as “–2.02”. Further, the “ratio (IC50 without AA / with AA), HCT116” value in data set [4] (48 h) is listed as no less than 2.8; in data set [4] (72 h) it was 3.94. The “complex intact after 6 h” value in [6] is listed as 90%. Besides, at albumin, the “albumin binding in serum (in words)” value is recorded as “significant binding to albumin (tR ~4 min) could be observed for any of the compounds”. Besides, the “ratio (IC50 without AA / with AA), CT26” value in [7] (48 h) was no less than 3; in data set [7] (72 h), 1.97. Moreover, in the data set on SKOV3 cell lysates, the “still present as platinum(IV) species after 72 h” value is roughly 50%.
On to `Cn1cc(C[C@@H]([NH3+])C(=O)[O][Pt]2([O]C(=O)CCCCCN3C(=O)CCC3=O)[O]C(=O)C(=O)[O]2)c2ccccc21.N[C@@H]1CCCC[C@H]1N.O=C([O-])C(F)(F)F` [SucEs/IdoEs, (OC-6-44)-[(R)-2-Ammonio-3-(1-methyl-1H-indol-3-yl)propanoato][(1R,2R)-1,2-cyclohexanediamino][6-(2,5-dioxopyrrolidin-1-yl)hexanoato]oxalatoplatinum(IV) Trifluoroacetate], for which the IC50 turned out to be 44.2 µM in data set [1]; 81.7 µM in data set [3]; 6.94 ± 0.33 µM in data set [4] (setting [8]); 22.8 ± 1.15 µM in data set [4] (setting [9]); 4.89 µM in data set [4] (setting [10]); 5.45 µM in data set [4] (setting [11]). In addition, the IC50 is greater than 100 µM in data set [5]; 91.5 ± 3.84 µM in data set [7] (setting [13]); 18.1 µM in data set [7] (setting [14]); 44.9 µM in data set [7] (setting [15]); 19.4 ± 1.2 µM with SKOV3 cancer cells; greater than 100 µM with human SKOV3 cancer cells (setting [16]). The IC50 in the data set with human SKOV3 cancer cells (setting [17]) is greater than 100 µM. Also, the “log D7.4” value in data set [2] is “–0.30”. The “time until complex completely reduced” value in data set [6] was no more than 2 h. Besides, the “albumin binding in serum (in words)” value at albumin was “significant binding to albumin (tR ~4 min) could be observed for any of the compounds”. The “1-MDT release after 72 h” value in the data set with SKOV3 cell lysates was roughly 100%.

The record behind these values is PMC8404199, “Structure–Activity Relationships of Triple-Action Platinum(IV) Prodrugs with Albumin-Binding Properties and Immunomodulating Ligands” (Journal of Medicinal Chemistry, 2021).
